We go through 15 compounds from patent publication US11319303B2 (WIGEN BIOMEDICINE TECHNOLOGY (SHANGHAI) CO., LTD., priority 2017, dated 2022).

The experiment deals with LC3B (Homo sapiens, UniProt Q9GZQ8). Description: Fluorescence Polarization (FP) Assay: displacement of FITC-labeled peptide from GST-LC3B. The class given is binding. The following applies: Fluorescence Polarization assay; GST-LC3B 180 nM, FITC-labeled peptide 18 nM, 25° C.; read-out: IC50. Here is the method: The compounds of the present invention for regulating the autophagy-related protein LC3B were tested by Fluorescence Polarization (FP) Assay.
Fluorescence Polarization (FP) Assay Test
In general terms: In fluorescence polarisation assays a small probe gives low polarisation when free and higher when bound to something large.
In the case of `CN(C)CCNC=C1C(=O)CC(c2cscc2Br)CC1=O` (stereo not drawn) [Compound 388, 5-(4-bromothiophen-3-yl)-2-(((2-(dimethylamino)ethyl)amino)methylene) cyclohexane-1,3-dione], the IC50 – broadly, the concentration needed to halve the response being measured – is below 3 µM.
For `O=C1CC(c2cccc3[nH]c(Br)c(Cl)c23)CC(=O)C1=CNCCN1CCN(CCO)CC1` (stereo not drawn) [Compound 405, 5-(2-bromo-3-chloro-1H-indol-4-yl)-2-(((2-(4-(2-ethoxyl)piperazin-1-yl)ethyl)amino)methylene) cyclohexane-1-1,3-dione], the half-inhibitory concentration (IC50) is below 3 µM.
For `CN(C)CCNC=C1C(=O)CC(c2ccccc2N2CCOCC2)CC1=O` (stereo not drawn) [Compound 344] the value was 3 to 15 µM; for `O=C1CC(c2ccc(Sc3ccccc3)cc2)CC(=O)C1=CNCCN1CCN(CCO)CC1` (stereo not drawn) [Compound 21, 2-(((2-(4-(2-hydroxyethyl)piperazin-1-yl)ethyl)amino)methylene)-5-(4-(phenylthio)phenyl) cyclohexane-1,3-dione], 15 to 100 µM.
Consider `O=C1CC(c2cnc3ccccc3n2)CC(=O)C1=CNCCN1CCN(CCO)CC1` (stereo not drawn) [Compound 88, 2-(((2-(4-(2-hydroxyethyl)piperazin-1-yl)ethyl)amino)methylene)-5-(quinoxalin-2-yl)cyclohexane-1,3-dione], for which the half-inhibitory concentration (IC50) lay in the range of 3 to 15 µM.
As for `CN(C)C(=O)N1CCN(CCNC=C2C(=O)CC(c3ccccc3)CC2=O)CC1` (stereo not drawn) [Compound 214, 4-(2-(((2,6-dioxo-4-phenylcyclo-hexylidene)methyl)amino)ethyl)-N,N-dimethylpiperazine-1-carboxamide], the figure is below 3 µM.
For `COCCn1ccc2c(C3CC(=O)C(=CNCCN4CCN(CCO)CC4)C(=O)C3)ccnc21` (stereo not drawn) [Compound 19, 2-(((2-(4-(2-hydroxyethyl)piperazin-1-yl)ethyl)amino)methylene)-5-(1-(2-methoxyethyl)-1H-pyrrolo[2,3-b]pyridin-4-yl)cyclohexane-1,3-dione] the value was 15 to 100 µM; for `O=C1CC(c2csc3ccccc23)CC(=O)C1=CNCCN1CCN(CCO)CC1` (stereo not drawn) [Compound 66, 5-(benzo[b]thiophen-3-yl)-2-(((2-(4-(2-hydroxyethyl)piperazin-1-yl)ethyl)amino)methylene) cyclohexane-1,3-dione], below 3 µM.
For the compound `O=C1CC(c2ncnc3sccc23)CC(=O)C1=CNCCN1CCN(CCO)CC1` (stereo not drawn) [Compound 27, 2-(((2-(4-(2-hydroxyethyl)piperazin-1-yl)ethyl)amino)methylene)-5-(thieno[2,3-d]pyrimidin-4-yl)cyclohexane-1,3-dione], the concentration for half-maximal inhibition (IC50) lay within 15 to 100 µM.
For the compound `CC1C(=O)/C(=C/NCCN2CCN(CCO)CC2)C(=O)CC1(O)c1ccccc1` (stereo not drawn) [Compound 325, 5-hydroxy-2-(((2-(4-(2-hydroxyethyl)piperazin-1-yl)ethyl)amino)methylene)-4-methyl-5-phenylcyclohexane-1,3-dione], the IC50 is 15 to 100 µM.
As for `O=C1C(=CNCCN2CCN(CCO)CC2)C(=O)c2ccccc21` [Compound 9, 2-(((2-(4-(2-hydroxyethyl)piperazin-1-yl)ethyl)amino)methylene)-1H-indene-1,3(2H)-dione], the figure is 100 to 1000 µM; as for `CCN(CC)CCCC(C)N/C=C1\C(=O)Nc2cc(Cl)ccc2C1=O` (stereo not drawn) [Compound 395, 7-chloro-3-(((5-(diethylamino)penta-2-yl)amino)methylene) quinoline-2,4 (1H,3H)-dione], 3 to 15 µM; as for `CN(C)CCNC=C1C(=O)CC(c2c(F)cccc2F)CC1=O` (stereo not drawn) [Compound 383, 5-(2,6-difluorophenyl)-2-(((2-(dimethylamino)ethyl)amino)methylene) cyclohexane-1,3-dione], below 3 µM.
For `CN(C)CCNC=C1C(=O)CC(c2ccc(F)cc2Cl)CC1=O` (stereo not drawn) [Compound 370, 5-(2-chloro-4-fluorophenyl)-2-(((2-(dimethylamino)ethyl)amino)methylene) cyclohexane-1,3-dione], the IC50 is below 3 µM.
As for `O=C1CC(c2cccs2)CC(=O)C1=CO` (stereo not drawn) [Compound 427, 2-(hydroxymethylene)-5-(2-thiophen)cyclohexane-1,3-dione], the figure is 3 to 15 µM.
